# Assay results: patent publication US12636298B2, “Composition with L-theanine and fructooligosaccharides for human memory enhancement” (HARKE Pharma GmbH, priority 2019, dated 2026)
# Legend:
# KumMing (KM) mice = test: Passive avoidance test (embodiment 1); type: in vivo, mouse
# Excerpt: The Passive Avoidance Test (Solomon and Wynne, 1954; Solomon and Turner, 1960) is a fear-aggravated task employed to evaluate learning and memory in rodent models. In this test, subjects learn to avoid an environment in which an aversive stimulus (such as a foot-shock) was previously delivered. The test chamber is divided into a light compartment and a dark compartment, with a gate between the two. Animals are allowed to explore both compartments on the first day. On the following day, they are given a mild foot shock in one of the compartments. Animals will learn to associate certain properties of the chamber with the foot shock. In order to test their learning and memory, the mice are then placed back in the compartment where no shock was delivered. Mice with normal learning and memory will avoid entering the chamber where they had previously been exposed to the shock. This is measured by recording the latency to cross through the gate between the compartments. “Learning” is the period where mice were trained in this test (Table 1 and 2). Mice were tested at 24 or 48 hours after learning and the results were recorded (“Test column” in Table 1 and 2). “Fade” indicates re-testing of mice 5 days after learning (“Fade column” Table 1 and 2). Error percentage indicates the percentage of mice that have been shocked during the test. Our research was undertaken with KumMing (KM) mice (Dai et al. 2012; Ma et al. 2013). In each test, 48 KM mice were separated into 4 groups, 12 mice per group. A negative-control group was also included in the test and mock treated. […] We subsequently, tested different doses of embodiment 1, 0.1, 0.2 or 0.3 g/kg of mouse body weight (bw) of embodiment 1, consisting of a combination of fructooligoscharide and L-theanine, in the passive avoidance test.
# mice [1] = test: Water maze test (MT-01 vs FOS and L-theanine); type: in vivo; conditions: for Error count during testing phase: MT-01 both, control 4.11
# Protocol: Furthermore, to test the hypothesis that administration of M. officinalis FOS and L-theanine in a ratio of about 2:1 L-theanine:FOS synergistically enhance mice memory, we have performed a step-down passive avoidance test and a water maze test. This was employed to assess the effect of M. officinalis FOS and L-theanine individually on mice memory compared to their collective effect when administrated in combination in a ratio of about 2:1 L-theanine:FOS (MT-01) (FIG. 1). Maze test was performed to further confirm the hypothesis. […] We analysed the synergy between FOS and L-theanine in the formulation by calculating the coefficient of drug interaction (CDI), as shown in Table 1.
# mice [2] = test: Step-down passive avoidance test (MT-01 vs FOS and L-theanine); type: in vivo; conditions: for Error count during testing phase: MT-01 both, control 2.33; for latency during the retention phase (FIG. 1c): comparison between groups
# Excerpt: Furthermore, to test the hypothesis that administration of M. officinalis FOS and L-theanine in a ratio of about 2:1 L-theanine:FOS synergistically enhance mice memory, we have performed a step-down passive avoidance test and a water maze test. This was employed to assess the effect of M. officinalis FOS and L-theanine individually on mice memory compared to their collective effect when administrated in combination in a ratio of about 2:1 L-theanine:FOS (MT-01) (FIG. 1).
# We analysed the synergy between FOS and L-theanine in the formulation by calculating the coefficient of drug interaction (CDI), as shown in Table 1.
# [3] = doses g/kg·bw: Embodiment 1 0.01, L-Theanine 0.0067, Fructooligosaccharide 0.0033, 24 or 48 hours after learning
# [4] = doses g/kg·bw: Embodiment 1 0.01, L-Theanine 0.0067, Fructooligosaccharide 0.0033, 5 days after learning
# [5] = doses g/kg·bw: Embodiment 1 0.01, L-Theanine 0.0067, Fructooligosaccharide 0.0033, training period
# [6] = Low dose: L-theanine 66, FOS 33 mg/kg·bw
# [7] = Medium dose: L-theanine 134, FOS 66 mg/kg·bw
structure (smiles),measurement,setting,value
CCNC(=O)CC[C@H](N)C(=O)O [L-theanine],impact on rodent memory in the mouse passive avoidance test,"KumMing (KM) mice; Table 1 doses, vs control",neither fructooligoscharide nor L-theanine alone have a positive impact on rodent memory
same,Test Error Count,KumMing (KM) mice; [3],1.22 ± 1.14
same,Test Incubation period,KumMing (KM) mice; [3],232.13 ± 70.71 s
same,Fade Error Count,KumMing (KM) mice; [4],1.40 ± 1.07
same,Fade Incubation period,KumMing (KM) mice; [4],267.80 ± 51.03 s
same,Learning Error Count,KumMing (KM) mice; [5],3.90 ± 1.52
same,Learning Incubation period,KumMing (KM) mice; [5],48.30 ± 10.71 s
same,Error count during testing phase,"mice [1]; High dose: L-theanine 200, FOS 100 mg/kg·bw",2.41
same,Error count during testing phase,mice [1]; [6],2.45
same,Error count during testing phase,mice [1]; [7],2.95
same,time to escape during the test (FIG. 1a),"mice [1]; all doses, compared to control group, p<0.05",significantly (p<0.05) less time to escape
same,escape time during test,"mice [1]; medium and high dose, between MT-01, L-theanine and FOS",no significant differences
same,Error count during testing phase,mice [2]; [6],0.83
same,Error count during testing phase,mice [2]; [7],1.00
same,latency during the retention phase (FIG. 1c),mice [2]; high dose,higher latency
same,latency during the retention phase (FIG. 1c),mice [2]; low dose,neither the FOS-only nor L-theanine-only group show any significant difference
